Assay results taken from US20260365670A1, “EGFR INHIBITORS AND USES THEREOF” (DIZAL (JIANGSU) PHARMACEUTICAL CO., LTD., priority 2022, published 2026).
Like-named read-outs stand apart in the source and are kept apart here.

Tests used:
EGFR (d746-750 C797S) = target: T1, EGFR (d746-750 C797S) (Homo sapiens, UniProt P00533, C797S/DEL746-750); experiment: Inhibition of EGFR (d746-750 C797S) biochemical enzymatic activity (HTRF); details: EGFR Del19-C797S, 1 mM ATP, 1 h, room temperature, read-out: IC50 (nM) @Del19-C797S
T1 construct: purchased signalchem
Method in brief: (§1)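 Kinase activity is measured by HTRF detection of biotinylated TK substrate (1 μM) phosphorylation at 1 mM ATP. Incubation lasts 1 h at room temperature before an EDTA stop, and IC50 is fitted with a four-parameter logistic model.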

[1] = tested on: Ba/F3 cells expressing EGFR mutations; experiment: Cell proliferation assay, Ba/F3 cells expressing EGFR mutations (CellTiter-Glo, 72 hours); format: cell-based; details: CellTiter-Glo
Method in brief: (§2)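 Growth over 72 h was quantified by CellTiter-Glo luminescence, normalised as (G3 − G0)/(DMSO G3 − G0), for PC-9 cells seeded at 500/well and EGFR-mutant Ba/F3 cells at 5000/well in RPMI1640. Compound concentration series added after overnight incubation; GI50 obtained from best-fit curves.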

EGFR Exon19Del = target: T2, EGFR Exon19Del (Homo sapiens, UniProt P00533, DEL746-750); experiment: Inhibition of EGFR Exon19Del biochemical enzymatic activity (HTRF); details: EGFR Del19, 1 mM ATP, 1 h, room temperature, read-out: IC50 @Del19
T2 construct: purchased Carna Bio
Method in brief: as §1

EGFR (C797S L858R) = target: T3, EGFR (C797S L858R) (Homo sapiens, UniProt P00533, C797S/L858R); experiment: Inhibition of EGFR (C797S L858R) biochemical enzymatic activity (HTRF); details: EGFR L858-C797S, 1 mM ATP, 1 h, room temperature, read-out: IC50 (nM) @L858-C797S
T3 construct: purchased signalchem
Method in brief: as §1

A-431 = experiment: Cell proliferation GI50, A-431 cells (Table 6); format: cell-based
EGFR wild type = target: T4, EGFR wild type (Homo sapiens, UniProt P00533); experiment: Inhibition of EGFR wild type biochemical enzymatic activity (HTRF); details: EGFR WT, 1 mM ATP, 1 h, room temperature, read-out: IC50 (nM) @WT
T4 construct: purchased Carna Bio
Method in brief: as §1

EGFR Exon19Del/T790M = target: T5, EGFR Exon19Del/T790M (Homo sapiens, UniProt P00533, DEL746-750/T790M); experiment: Inhibition of EGFR Exon19Del/T790M biochemical enzymatic activity (HTRF); details: EGFR Del19-T790M, 1 mM ATP, 1 h, room temperature, read-out: IC50 (nM) @Del19-T790M
T5 construct: purchased Carna Bio
Method in brief: as §1

EGFR L858R/T790M = target: T6, EGFR L858R/T790M (Homo sapiens, UniProt P00533, L858R/T790M); experiment: Inhibition of EGFR L858R/T790M biochemical enzymatic activity (HTRF); details: EGFR L858R-T790M, 1 mM ATP, 1 h, room temperature, read-out: IC50 (nM) @L858R-T790M
T6 construct: purchased Carna Bio
Method in brief: as §1

[2] = target: T7, EGFR[T790M/C797S/d746-750] (Homo sapiens, UniProt P00533, C797S/DEL746-750/T790M); experiment: Inhibition of EGFR[T790M/C797S/d746-750] biochemical enzymatic activity (HTRF); details: EGFR T790M-C797S-Del19, 1 mM ATP, 1 h, room temperature, read-out: IC50 (nM) @T790M - C797S - Del19
T7 construct: purchased Carna Bio
Method in brief: as §1

EGFR[T790M/C797S/L858R] = target: T8, EGFR[T790M/C797S/L858R] (Homo sapiens, UniProt P00533, C797S/L858R/T790M); experiment: Inhibition of EGFR[T790M/C797S/L858R] biochemical enzymatic activity (HTRF); details: EGFR T790M-C797S-L858R, 1 mM ATP, 1 h, room temperature, read-out: IC50 (nM) @T790M- C797S - L858R
T8 construct: purchased Carna Bio
Method in brief: as §1

EGFR L858R = target: T9, EGFR L858R (Homo sapiens, UniProt P00533, L858R); experiment: Inhibition of EGFR L858R biochemical enzymatic activity (HTRF); details: 1 mM ATP, 1 h, room temperature, read-out: IC50 (nM) @L858R
T9 construct: purchased Carna Bio
Method in brief: as §1

PC-9 = experiment: Cell proliferation assay, PC-9 cells (CellTiter-Glo, 72 hours); format: cell-based; details: PC9 cells, CellTiter-Glo, read-out: PC9 GI50
Method in brief: as §2

[3] = BaF3 cells, EGFR DEL19-C797S, read-out: DEL19-C797S/BaF3 GI50
[4] = BaF3 cells, EGFR DEL19-T790-C797S, read-out: DEL19-T790-C797S/BaF3 GI50
[5] = BaF3 cells, EGFR L858R, read-out: L858R/BaF3 GI50
[6] = BaF3 cells, EGFR L858R-C797S, read-out: L858R-C797S/BaF3 GI50
[7] = BaF3 cells, EGFR L858R-T790-C797S, read-out: L858R-T790-C797S/BaF3 GI50
[8] = BaF3 cells, EGFR L858R-T790M, read-out: L858R-T790M/BaF3 GI50
[9] = EGFR DEL19-T790M, read-out: DEL19-T790M GI50
[10] = Homo sapiens, A-431, A-431 cells

T5 sequence (P00533 with tags, fused parts or gaps DEL746-750/T790M limits assumed): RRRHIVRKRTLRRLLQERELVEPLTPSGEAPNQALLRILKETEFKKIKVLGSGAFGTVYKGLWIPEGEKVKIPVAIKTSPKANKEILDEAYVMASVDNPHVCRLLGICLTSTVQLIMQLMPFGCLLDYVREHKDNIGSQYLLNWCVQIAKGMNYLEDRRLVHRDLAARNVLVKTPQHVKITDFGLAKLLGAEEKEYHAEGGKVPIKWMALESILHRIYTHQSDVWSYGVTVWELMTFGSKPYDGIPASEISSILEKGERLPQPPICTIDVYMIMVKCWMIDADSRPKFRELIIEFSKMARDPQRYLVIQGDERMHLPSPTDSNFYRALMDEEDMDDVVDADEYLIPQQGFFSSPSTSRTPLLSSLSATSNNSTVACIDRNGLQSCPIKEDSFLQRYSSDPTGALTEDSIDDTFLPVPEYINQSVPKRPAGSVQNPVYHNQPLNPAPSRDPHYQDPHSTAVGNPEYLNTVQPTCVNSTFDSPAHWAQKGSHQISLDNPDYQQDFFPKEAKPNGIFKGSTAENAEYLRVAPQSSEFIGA
T8 sequence (P00533 25-1210 T790M/C797S/L858R): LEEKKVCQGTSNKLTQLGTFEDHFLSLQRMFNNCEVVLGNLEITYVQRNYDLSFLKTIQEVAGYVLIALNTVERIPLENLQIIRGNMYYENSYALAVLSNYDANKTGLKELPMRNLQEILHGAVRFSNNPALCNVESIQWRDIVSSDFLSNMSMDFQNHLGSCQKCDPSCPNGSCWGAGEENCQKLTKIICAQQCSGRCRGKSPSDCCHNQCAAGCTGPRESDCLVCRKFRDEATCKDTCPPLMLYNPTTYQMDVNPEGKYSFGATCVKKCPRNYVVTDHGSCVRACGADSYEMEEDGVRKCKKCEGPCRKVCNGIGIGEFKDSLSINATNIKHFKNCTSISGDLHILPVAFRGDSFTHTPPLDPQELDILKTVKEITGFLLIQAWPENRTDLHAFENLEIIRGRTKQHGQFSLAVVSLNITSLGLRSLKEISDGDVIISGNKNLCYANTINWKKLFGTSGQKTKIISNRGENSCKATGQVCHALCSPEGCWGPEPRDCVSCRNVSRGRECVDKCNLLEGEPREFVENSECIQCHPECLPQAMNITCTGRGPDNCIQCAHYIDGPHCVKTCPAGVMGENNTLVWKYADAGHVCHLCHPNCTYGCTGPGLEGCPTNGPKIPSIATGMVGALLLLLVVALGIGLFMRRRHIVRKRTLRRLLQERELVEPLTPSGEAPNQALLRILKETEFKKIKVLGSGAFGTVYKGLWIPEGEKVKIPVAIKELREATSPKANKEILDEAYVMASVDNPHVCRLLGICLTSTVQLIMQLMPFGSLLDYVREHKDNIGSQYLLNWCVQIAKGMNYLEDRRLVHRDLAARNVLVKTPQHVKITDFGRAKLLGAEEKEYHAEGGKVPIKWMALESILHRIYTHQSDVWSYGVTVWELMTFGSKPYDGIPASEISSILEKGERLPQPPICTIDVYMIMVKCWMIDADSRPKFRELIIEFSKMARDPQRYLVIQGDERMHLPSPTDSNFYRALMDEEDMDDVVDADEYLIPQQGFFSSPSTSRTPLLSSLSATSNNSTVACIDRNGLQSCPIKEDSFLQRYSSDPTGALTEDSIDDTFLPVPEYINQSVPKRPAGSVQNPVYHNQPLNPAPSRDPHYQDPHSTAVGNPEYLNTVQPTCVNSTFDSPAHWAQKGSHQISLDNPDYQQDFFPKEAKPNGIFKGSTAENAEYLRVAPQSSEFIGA
T6 sequence (P00533 25-1210 T790M/L858R): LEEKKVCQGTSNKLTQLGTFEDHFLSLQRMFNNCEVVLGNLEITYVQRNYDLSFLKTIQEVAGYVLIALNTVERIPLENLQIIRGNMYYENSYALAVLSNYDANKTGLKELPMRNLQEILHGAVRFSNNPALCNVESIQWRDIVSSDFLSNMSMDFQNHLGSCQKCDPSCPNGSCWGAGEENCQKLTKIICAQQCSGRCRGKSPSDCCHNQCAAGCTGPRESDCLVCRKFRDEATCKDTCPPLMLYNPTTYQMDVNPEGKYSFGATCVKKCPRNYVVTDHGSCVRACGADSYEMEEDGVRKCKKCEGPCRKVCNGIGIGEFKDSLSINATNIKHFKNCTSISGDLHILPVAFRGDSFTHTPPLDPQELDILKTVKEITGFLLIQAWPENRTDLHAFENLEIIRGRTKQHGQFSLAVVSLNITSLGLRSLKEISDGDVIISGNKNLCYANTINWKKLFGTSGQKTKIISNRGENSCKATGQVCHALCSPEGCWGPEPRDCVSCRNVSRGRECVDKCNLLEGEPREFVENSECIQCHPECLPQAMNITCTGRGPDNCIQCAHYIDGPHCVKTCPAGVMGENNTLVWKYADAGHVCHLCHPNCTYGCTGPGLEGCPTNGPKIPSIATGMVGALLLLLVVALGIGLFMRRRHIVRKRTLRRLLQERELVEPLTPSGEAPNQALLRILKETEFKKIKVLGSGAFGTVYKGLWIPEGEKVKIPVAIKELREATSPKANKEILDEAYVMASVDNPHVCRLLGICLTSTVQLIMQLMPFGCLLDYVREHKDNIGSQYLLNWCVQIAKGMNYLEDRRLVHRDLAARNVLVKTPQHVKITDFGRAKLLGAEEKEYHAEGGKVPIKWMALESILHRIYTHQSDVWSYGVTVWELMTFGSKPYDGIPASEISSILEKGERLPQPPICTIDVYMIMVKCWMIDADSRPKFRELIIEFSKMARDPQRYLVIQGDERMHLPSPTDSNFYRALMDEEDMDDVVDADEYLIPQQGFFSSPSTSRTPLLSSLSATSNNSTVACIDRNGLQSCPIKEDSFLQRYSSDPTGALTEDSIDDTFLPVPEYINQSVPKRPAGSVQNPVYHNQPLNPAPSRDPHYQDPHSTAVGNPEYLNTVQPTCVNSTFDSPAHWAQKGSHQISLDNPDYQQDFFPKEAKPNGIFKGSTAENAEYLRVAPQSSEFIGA
T2 sequence (P00533 with tags, fused parts or gaps DEL746-750 limits assumed): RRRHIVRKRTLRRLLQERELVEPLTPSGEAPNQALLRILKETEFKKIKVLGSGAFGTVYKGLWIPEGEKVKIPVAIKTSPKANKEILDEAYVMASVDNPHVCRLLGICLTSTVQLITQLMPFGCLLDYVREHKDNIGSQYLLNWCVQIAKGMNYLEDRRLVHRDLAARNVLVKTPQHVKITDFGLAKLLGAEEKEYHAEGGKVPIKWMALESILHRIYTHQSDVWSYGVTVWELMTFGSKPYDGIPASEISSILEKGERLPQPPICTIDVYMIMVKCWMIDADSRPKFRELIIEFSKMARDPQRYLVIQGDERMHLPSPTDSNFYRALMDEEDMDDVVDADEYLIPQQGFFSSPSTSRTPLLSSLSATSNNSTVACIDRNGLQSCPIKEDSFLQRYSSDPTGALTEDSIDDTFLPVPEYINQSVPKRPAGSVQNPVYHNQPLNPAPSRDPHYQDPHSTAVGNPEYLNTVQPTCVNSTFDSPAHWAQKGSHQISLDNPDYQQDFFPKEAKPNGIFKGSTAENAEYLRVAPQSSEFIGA
T4 sequence (P00533 25-1210): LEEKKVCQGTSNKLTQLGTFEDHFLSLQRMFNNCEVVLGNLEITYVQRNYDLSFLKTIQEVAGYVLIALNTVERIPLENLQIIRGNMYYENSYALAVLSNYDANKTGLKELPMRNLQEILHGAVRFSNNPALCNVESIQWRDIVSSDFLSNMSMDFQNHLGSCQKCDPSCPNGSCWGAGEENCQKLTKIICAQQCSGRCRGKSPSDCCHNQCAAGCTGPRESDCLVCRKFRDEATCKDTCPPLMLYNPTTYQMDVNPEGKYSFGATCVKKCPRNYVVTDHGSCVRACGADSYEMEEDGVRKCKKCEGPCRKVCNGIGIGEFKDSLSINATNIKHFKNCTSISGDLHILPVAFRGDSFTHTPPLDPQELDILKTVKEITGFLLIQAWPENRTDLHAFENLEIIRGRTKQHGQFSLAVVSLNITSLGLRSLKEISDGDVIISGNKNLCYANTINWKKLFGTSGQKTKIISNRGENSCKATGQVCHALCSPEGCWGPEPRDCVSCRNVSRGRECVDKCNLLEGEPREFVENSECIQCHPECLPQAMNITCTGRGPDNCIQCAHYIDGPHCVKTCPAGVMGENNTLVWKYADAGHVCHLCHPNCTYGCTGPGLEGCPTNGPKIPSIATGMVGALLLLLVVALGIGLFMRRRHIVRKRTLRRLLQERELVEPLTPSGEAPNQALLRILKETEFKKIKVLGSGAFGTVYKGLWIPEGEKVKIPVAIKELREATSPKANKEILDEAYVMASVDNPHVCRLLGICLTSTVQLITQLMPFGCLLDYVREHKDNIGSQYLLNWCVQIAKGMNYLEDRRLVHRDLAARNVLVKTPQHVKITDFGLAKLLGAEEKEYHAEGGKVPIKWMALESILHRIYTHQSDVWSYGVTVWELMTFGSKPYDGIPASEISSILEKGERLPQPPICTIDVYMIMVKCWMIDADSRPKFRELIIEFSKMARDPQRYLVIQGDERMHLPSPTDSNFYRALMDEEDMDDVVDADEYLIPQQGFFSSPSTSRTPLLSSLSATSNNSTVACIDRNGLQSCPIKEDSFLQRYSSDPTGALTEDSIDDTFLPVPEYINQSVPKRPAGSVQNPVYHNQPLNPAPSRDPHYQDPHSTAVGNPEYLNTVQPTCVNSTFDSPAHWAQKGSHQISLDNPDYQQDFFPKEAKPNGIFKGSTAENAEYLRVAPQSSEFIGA

| SMILES | IC50 (EGFR (d746-750 C797S)) [nM] | GI50 [1, 3] [nM] | GI50 [1, 4] [nM] | GI50 [1, 5] [nM] | GI50 [1, 6] [nM] | GI50 [1, 7] [nM] | GI50 [1, 8] [nM] | GI50 [1, 9] [nM] | IC50 (EGFR Exon19Del) [nM] | IC50 (EGFR (C797S L858R)) [nM] | GI50 (A-431; A-431 cells) [nM] | IC50 (EGFR wild type) [nM] | IC50 (EGFR Exon19Del/T790M) [nM] | IC50 (EGFR L858R/T790M) [nM] | IC50 [2] [nM] | IC50 (EGFR[T790M/C797S/L858R]) [nM] | IC50 (EGFR L858R) [nM] | GI50 (PC-9) [nM] | GI50 (A-431; [10]) [nM] |
| --- | --- | --- | --- | --- | --- | --- | --- | --- | --- | --- | --- | --- | --- | --- | --- | --- | --- | --- | --- |
| CN(C)C1CCN(c2ccc3nc4n(c3c2)C23CCC(CN(CCOc5c(cnn5C)-c5cc(cn(C)c5=O)C(=O)N4)C2)C3)CC1 (single isomer, unassigned) [Example A64A] | 1920 | 215 | 513 | 599 | 443 | 381 | 2100 | 755 | 2160 | > 5000 | 6130 | > 5000 | > 5000 | > 5000 | 2100 | > 5000 | > 5000 | 546 | – |
| CN(C)[C@H]1CCN(c2ccc3nc4n(c3c2)C23CCC(CN(CCOc5c(cnn5C)-c5cc(cn(C)c5=O)C(=O)N4)C2)C3)C1 (single isomer, unassigned) [Example A66B] | 1.7 | 0.67 | 2.1 | 2.4 | 3.6 | 2.2 | 11 | 1.9 | 1.9 | 8.1 | – | 62 | 2.8 | 2.6 | 2.9 | 3.2 | 7.9 | 6.1 | 815 |
| CN1CCC12CCN(c1ccc3nc4n(c3c1)C13CCC(CN(CCOc5c(cnn5C)-c5cc(cn(C)c5=O)C(=O)N4)C1)C3)CC2 (single isomer, unassigned) [Example A67A] | 1080 | 133 | 374 | 530 | 382 | 258 | 1040 | 463 | 1020 | > 5000 | 6350 | > 5000 | 4070 | > 5000 | 1640 | > 5000 | > 5000 | 307 | – |
| Cn1ncc2c1OCCN1CC3CCC(C3)(C1)n1c(nc3ccc(N4CC(N5CCOCC5)C4)cc31)NC(=O)c1cc-2c(=O)n(C)c1 (single isomer, unassigned) [Example A69A] | 1780 | 227 | 366 | 643 | 598 | 503 | 1530 | 465 | 1200 | > 5000 | 9380 | > 5000 | > 5000 | > 5000 | > 5000 | > 5000 | > 5000 | 723 | – |
| Cn1ncc2c1OCCN1CC3CCC(C3)(C1)n1c(nc3ccc(N4CC(N5CCOCC5)C4)cc31)NC(=O)c1cc-2c(=O)n(C)c1 (single isomer, unassigned) [Example A69B] | 1.2 | 0.62 | 1.3 | 2.9 | 3.6 | 2 | 10 | 2 | 2.9 | 14 | 776 | 291 | 2 | 2.8 | 2.2 | 3 | 22 | 4.9 | – |

Stronger by IC50 (EGFR (d746-750 C797S)), values ahead:

| IC50 (EGFR (d746-750 C797S)) [nM] | GI50 [1, 3] [nM] | GI50 [1, 4] [nM] | GI50 [1, 5] [nM] | GI50 [1, 6] [nM] | GI50 [1, 7] [nM] | GI50 [1, 8] [nM] | GI50 [1, 9] [nM] | IC50 (EGFR Exon19Del) [nM] | IC50 (EGFR (C797S L858R)) [nM] | GI50 (A-431; A-431 cells) [nM] | IC50 (EGFR wild type) [nM] | IC50 (EGFR Exon19Del/T790M) [nM] | IC50 (EGFR L858R/T790M) [nM] | IC50 [2] [nM] | IC50 (EGFR[T790M/C797S/L858R]) [nM] | IC50 (EGFR L858R) [nM] | GI50 (PC-9) [nM] | GI50 (A-431; [10]) [nM] | SMILES |
| --- | --- | --- | --- | --- | --- | --- | --- | --- | --- | --- | --- | --- | --- | --- | --- | --- | --- | --- | --- |
| 1.1 | 0.68 | 1.5 | 1.7 | 3.2 | 1.4 | 7.2 | 2 | 2.7 | 3.7 | – | 18 | 2 | 1.7 | 1.6 | 2.1 | 3.7 | 4.2 | 473 | CN(C)[C@@H]1CCN(c2ccc3nc4n(c3c2)C23CCC(CN(CCOc5c(cnn5C)-c5cc(cn(C)c5=O)C(=O)N4)C2)C3)C1 (single isomer, unassigned) [Example A66D] |
| 0.97 | 0.71 | 2.2 | 2.7 | 3.5 | 2.8 | 11 | 2.4 | 0.94 | 7.4 | 538 | 148 | 1.7 | 2.4 | 1.7 | 1.8 | 16 | 5.6 | – | CN(C)C1CN(c2ccc3nc4n(c3c2)C23CCC(CN(CCOc5c(cnn5C)-c5cc(cn(C)c5=O)C(=O)N4)C2)C3)C1 (single isomer, unassigned) [Example A65B] |
| 0.95 | 0.71 | 0.92 | 0.91 | 1.7 | 0.79 | 4.9 | 1.3 | 1 | 2 | 973 | 3.6 | 1.8 | 2 | 2 | 1.9 | 2 | 3.3 | – | CN(C)C1CCN(c2ccc3nc4n(c3c2)C23CCC(CN(CCOc5c(cnn5C)-c5cc(cn(C)c5=O)C(=O)N4)C2)C3)CC1 (single isomer, unassigned) [Example A64B] |
| 0.95 | 0.66 | 1.3 | 2.1 | 2.8 | 1.3 | 9.6 | 1.8 | 1.2 | 3.1 | 284 | 8.9 | 1.8 | 1.8 | 1.8 | 1.8 | 2.9 | 3.5 | – | CN1CC2CN(c3ccc4nc5n(c4c3)C34CCC(CN(CCOc6c(cnn6C)-c6cc(cn(C)c6=O)C(=O)N5)C3)C4)CC2C1 (single isomer, unassigned) [Example A68B] |
| 0.48 | 0.64 | 0.92 | 0.79 | 1.9 | 0.84 | 3.5 | 1 | 0.65 | 1.2 | 712 | 2.1 | 1.3 | 1.1 | 1.2 | 1.1 | 1.1 | 2.5 | – | CN1CCC12CCN(c1ccc3nc4n(c3c1)C13CCC(CN(CCOc5c(cnn5C)-c5cc(cn(C)c5=O)C(=O)N4)C1)C3)CC2 (single isomer, unassigned) [Example A67B] |
